Data reported in article PMC12461331, “Screening of Medicines for Malaria Venture Open Boxes Identifies Potent SARS-CoV‑2 Papain-like Protease (PL^pro) Inhibitors” (ACS Omega, 2025).
“And” between values parts separate entries of the source, which are not always exact repeats. Equal entries are not always repeated. Structures can show the parent of a compound that is named as a salt. Where two headings read alike, the source gives them in different places.

Key:
physchem [1] = settings: pH 7.4
[2] = female, BALB/c, mouse, 1 h, 2 μM, pH 7.4
[3] = Human liver microsomal stability assay; settings: human, liver microsomes, pH 7.4
in vitro [4] = settings: PAMPA
physchem [5] = settings: 25 °C, kinetic from dmso stock
Plasma stability = settings: female, BALB/c, mouse, plasma, pH 7.4
PL^pro = PL^pro (Severe acute respiratory syndrome coronavirus 2, UniProt P0DTD1); settings: 20 μM compound, 5 μM enzyme, average of triplicates with SD
in vitro [6] = settings: CD1, mouse, microsomes, pH 7.4
in vitro [7] = settings: human, microsomes, pH 7.4
[8] = Mouse liver microsomal stability assay; settings: CD1, mouse, liver microsomes, pH 7.4
HeLa-ACE2 cells [9] = settings: for Data Mode / S0 / Sinf / nHill: Hela-ACE2 CoV-2 Total Cell count; for S0 / Sinf / nHill: curve fit; for HeLa-ACE2 Total Cell Efficacy (Sinf, note + or -): infected HeLa-ACE2 total cell count
SARS-CoV-2 [10] = settings: for CoV2 Efficacy (delta S0:Sinf): HeLa-ACE2; for Data Mode: Hela-ACE2 % Positive SARS-CoV-2; for S0 / Sinf / nHill: Hela-ACE2 % Positive SARS-CoV-2, curve fit; for SI (average CC50/average EC50): supplement summary
HeLa-ACE2 cells [11] = experiment: cells; settings: Homo sapiens; for AC50: HeLa-ACE2, read-out: Log AC50 (converted)
[12] = system: uninfected HeLa-ACE2 cells; settings: Hela-ACE2 Uninfected Cell Toxicity; for S0 / Sinf / nHill: curve fit; for qAC50: relation in column qAC50 Mode, unit not given
in vitro [13] = settings: human, uninfected HeLa-ACE2 cells
SARS-CoV-2 [14] = experiment: microbe, parasite or virus in culture; settings: for AC50: Severe acute respiratory syndrome coronavirus 2, HeLa-ACE2, read-out: Log AC50 (converted)
[15] = HeLa-ACE2, read-out: HeLa-ACE2 Total cells EC50
[16] = uninfected HeLa-ACE2 CC50, supplement summary
[17] = Severe acute respiratory syndrome coronavirus 2, HeLa-ACE2, read-out: CoV-2 EC50
[18] = Severe acute respiratory syndrome coronavirus 2, HeLa-ACE2, read-out: qAC50

| Compound | chromatographic logD (physchem [1]) | plasma stability remaining 60 min [2] | half-life at 0.5 μM [3] | Papp at 5 h, 10 μM (in vitro [4]) | solubility kinetic at 24 h (physchem [5]; pH 2, aqueous buffer) | solubility kinetic at 24 h (physchem [5]; pH 7.4, aqueous buffer) | half-life at 2 μM (Plasma stability) | microsomal CLint at 0.5 μM (in vitro [6]) | microsomal CLint at 0.5 μM (in vitro [7]) | half-life at 0.5 μM [8] | Data Mode (HeLa-ACE2 cells [9]) | CoV2 Efficacy (delta S0:Sinf) (SARS-CoV-2 [10]) | Data Mode (SARS-CoV-2 [10]) | S0 (SARS-CoV-2 [10]) | Sinf (SARS-CoV-2 [10]) | nHill (SARS-CoV-2 [10]) | EC50 (HeLa-ACE2 cells [11]; [15]) | EC50 (HeLa-ACE2 cells [11]; HeLa-ACE2, read-out: qAC50) | Data Mode [12] | qAC50 [12] | other results |
| --- | --- | --- | --- | --- | --- | --- | --- | --- | --- | --- | --- | --- | --- | --- | --- | --- | --- | --- | --- | --- | --- |
| COc1ccc(CNC(=O)C2CCN(Cc3cccc4ccccc34)CC2)cc1 [Compound 1] | 4.18 | 43.36% | 23.7 min | 1 ×10⁻⁶ cm/s | > 24.9 µg/mL | > 21.8 µg/mL | 4.44 h | 146 µL/min/mg | 117 µL/min/mg | 18.9 min | – | – | – | – | – | – | – | – | – | – | ΔT m (PL^pro): 0.40 ± 0.08 °C |
| CCC(CC)COC(=O)[C@H](C)N[P@](=O)(OC[C@H]1O[C@@](C#N)(c2ccc3c(N)ncnn23)[C@H](O)[C@@H]1O)Oc1ccccc1 [Remdesivir, reference compound] | – | – | – | – | – | – | – | – | – | – | increasing | 101.769 | decreasing | 1.9121 | -99.8572 | 1.898 | 102 nM | 102 nM | decreasing | 2.1501e-6 | S0 (HeLa-ACE2 cells [9]): -15.3429; Sinf (HeLa-ACE2 cells [9]): 34.6571; nHill (HeLa-ACE2 cells [9]): 2.142; HeLa-ACE2 Total Cell Efficacy (Sinf, note + or -) (HeLa-ACE2 cells [9]): 2.142; SI (average CC50/average EC50) (SARS-CoV-2 [10]): 22.589; AC50 (HeLa-ACE2 cells [11]): 102 nM; S0 [12]: 13.7985; Sinf [12]: -53.8717; nHill [12]: 1.539; AC50 at 24 h (in vitro [13]): 2150 nM; CC50 at 24 h (in vitro [13]; [16]): 2150 nM; EC50 (SARS-CoV-2 [14]; [17]): 95 nM; AC50 (SARS-CoV-2 [14]): 95.2 nM; EC50 (SARS-CoV-2 [14]; [18]): 95.2 nM |
| COc1ccc(C[C@H](N)C(=O)N[C@H]2[C@@H](O)[C@H](n3cnc4c(N(C)C)ncnc43)O[C@@H]2CO)cc1 [Puromycin dihydrochloride, reference compound] | – | – | – | – | – | – | – | – | – | – | decreasing | 109.643 | decreasing | 10.0167 | -99.6259 | 4 | 1140 nM | 1140 nM | decreasing | 5.784e-7 | S0 (HeLa-ACE2 cells [9]): -17.6223; Sinf (HeLa-ACE2 cells [9]): -98.1852; nHill (HeLa-ACE2 cells [9]): 4; HeLa-ACE2 Total Cell Efficacy (Sinf, note + or -) (HeLa-ACE2 cells [9]): 4.000; SI (average CC50/average EC50) (SARS-CoV-2 [10]): 1.518; AC50 (HeLa-ACE2 cells [11]): 1140 nM; S0 [12]: -1.04; Sinf [12]: -99.1112; nHill [12]: 3.073; AC50 at 24 h (in vitro [13]): 578 nM; CC50 at 24 h (in vitro [13]; [16]): 578 nM; EC50 (SARS-CoV-2 [14]; [17]): 381 nM; AC50 (SARS-CoV-2 [14]): 381 nM; EC50 (SARS-CoV-2 [14]; [18]): 381 nM |
| COc1ccc(CNC(=O)[C@H]2CCN([C@H](C)c3cccc4ccccc34)C2)cc1 [Compound 16] | 4.24 | 88.71% | 10.9 min | 0.53 ×10⁻⁶ cm/s | > 24.6 µg/mL | > 19.5 µg/mL | 28.9 h | 267 µL/min/mg | 254 µL/min/mg | 10.4 min | – | – | – | – | – | – | – | – | – | – | ΔT m (PL^pro): 0.40 ± 0.08 °C |
| COc1ccc(CC(=O)NC2CCN([C@@H](C)c3cccc4ccccc34)CC2)cc1 [Compound 7] | 4.27 | 95.21% | 13.5 min | 1.03 ×10⁻⁶ cm/s | > 24.8 µg/mL | > 15.9 µg/mL | 116 h | 378 µL/min/mg | 205 µL/min/mg | 7.33 min | – | – | – | – | – | – | – | – | – | – | – |
| Cc1cccc(/C=N/Nc2cc(N3CCOCC3)nc(OCCc3ccccn3)n2)c1 [Apilimod, reference compound] | – | – | – | – | – | – | – | – | – | – | inactive | 96.257 | decreasing | 0.02088 | -96.2358 | 1.796 | > 2400 nM | > 2400 nM | decreasing | 5.705e-6 | SI (average CC50/average EC50) (SARS-CoV-2 [10]): 222.534; S0 [12]: -7.369; Sinf [12]: -100; nHill [12]: 1.671; AC50 at 24 h (in vitro [13]): 5700 nM; CC50 at 24 h (in vitro [13]; [16]): 5700 nM; EC50 (SARS-CoV-2 [14]; [17]): 26 nM; AC50 (SARS-CoV-2 [14]): 25.6 nM; EC50 (SARS-CoV-2 [14]; [18]): 25.6 nM |
| C[C@@H](c1cccc2ccccc12)N1CCC(C(=O)NCc2ccncc2)CC1 (racemic) [Compound 10] | 3.32 | 97.19% | 36.7 min | 1.01 ×10⁻⁶ cm/s | > 17.3 µg/mL | > 31 µg/mL | – | 110 µL/min/mg | 75.6 µL/min/mg | 25.3 min | inactive | 103.533 | decreasing (weakly active) | 3.533 | -100 | 4 | > 9610 nM | > 9610 nM | inactive | > 3.984e-5 | ΔT m (PL^pro): 4.65 °C and 4.6 ± 0.1 °C; CC50 at 24 h (in vitro [13]; [16]): > 39800 nM; CC50 at 24 h (in vitro [13]; uninfected HeLa-ACE2 CC50, uninfected HeLa-ACE2 cells, average of triplicates): > 39800 nM; AC50 (SARS-CoV-2 [14]): > 9610 nM; EC50 (SARS-CoV-2 [14]; Severe acute respiratory syndrome coronavirus 2, HeLa-ACE2, read-out: SARS-CoV-2 EC50, HeLa-ACE2 cells, average of triplicates): > 9610 nM; EC50 (SARS-CoV-2 [14]; Severe acute respiratory syndrome coronavirus 2, HeLa-ACE2, read-out: qAC50, Hela-ACE2 % Positive SARS-CoV-2, relation in column qAC50 Mode, unit inferred): > 9610 nM |
| COc1ccc(CNC(=O)[C@@H]2CCN([C@H](C)c3cccc4ccccc34)C2)cc1 (stereo in doubt) [Compound 18] | 4.24 | 56.69% | 13.1 min | 0.56 ×10⁻⁶ cm/s | > 25.2 µg/mL | > 19.8 µg/mL | 7.7 h | 582 µL/min/mg | 212 µL/min/mg | 4.76 min | – | – | – | – | – | – | – | – | – | – | – |
